Measurements from patent US6080859A, “Pyrroloindole derivatives and intermediates in producing the same” (priority 1997, dated 2000).
Where a name gives a salt, the structure may show the parent alone. Read-outs that look alike come from different tables or passages of the source.

What was measured:
[1] = Decomposition reaction under chemical conditions (half life in buffer solution of pH 7.4, HPLC); type: physicochemical; details: ph 7.4 buffer/dma, pH 7.4 buffer / N,N-dimethylacetamide 50 v/v%, 37° C.
Protocol: Decomposition reaction under chemical conditions:
A buffer solution of pH 7.4 was prepared by mixing suitably an aqueous 0.1 M citric acid solution and an aqueous 0.2 M disodium hydrogenphosphate solution. The buffer solution was diluted tenfold with water. This buffer solution was further dissolved in N,N-dimethylacetamide at a concentration of 50 v/v%, and its pH was adjusted to 7.4 by adding suitable amount of aqueous 0.1 M citric acid solution to prepare a buffer solution. The test compounds were dissolved respectively in the buffer solution at a concentration of 5 μM to prepare the test sample solutions. The test sample solutions were placed respectively in a glass vial, and the glass vials were kept at 37° C. in a thermostat. The change of the concentration of remaining test compounds with lapse of time was determined quantitatively intermittently by high performance liquid chromatography (HPLC) to measure the half life (t1/2 : hours).

[2] = tested on: M5076/ADR cells (adriamycin-resistant strain); test: Evaluation with mouse bearing M5076/ADR cells (adriamycin-resistant strain) transplanted subcutaneously; type: in vivo, mouse (female, BDFI strain); details: 1.0 mg/kg, single injection into tail vein nine days after transplantation; tumor weighed 13 days after injection
Protocol: Evaluation with mouse bearing M5076/ADR cells (adriamycin-resistant strain) transplanted subcutaneously:
M5076/ADR cells (adriamycin-resistant strain) were transplanted subcutaneously at the axillary region of female mice (BDFI strain, 8 week age) in an amount of 3.0×10^6 cells for an individual mouse. Nine days after the transplantation, the test compound solution was injected once into the tail vein. After 13 days from the injection, the tumor was excised and weighed. The antitumor activity was evaluated by the ratio (T/C) of the average tumor weight (T) of the administrated group to the average tumor weight (C) of control group to which solvent was administrated.

[3] = read-out: Half life (t1/2) (converted)
[4] = * Average of the half lives of the diastereomers, read-out: Half life (t1/2), average of the half lives of the diastereomers (converted)

## COC(=O)c1c(C(F)(F)F)[nH]c2c(OC(=O)N3C[C@H](O)C[C@H]3CO)cc3c(c12)[C@H](CCl)CN3C(=O)c1cc2cc(NC(=O)c3cc4cccc(OC)c4o3)ccc2[nH]1 [Example 2, methyl (1S) -chloromethyl-5-{[(4R)-hydroxy-(2S)-hydroxymethylpyrrolidin-1-ylcarbonyl]oxy}-3-[5-(7-methoxybenzofuran-2-ylcarbonyl)amino-1H-indol-2-ylcarbonyl]-7-trifluoromethyl-1,2,3,6-tetrahydropyrrolo[3,2-e]indole-8-carboxylate]
[1]; [3]
  half-life at 5 µM: > 8 h

## COC(=O)c1c(C(F)(F)F)[nH]c2c(OC(=O)N3CCN(C)CC3CCO)cc3c(c12)[C@H](CCl)CN3C(=O)c1cc2cc(NC(=O)c3cc4cccc(OC)c4o3)ccc2[nH]1 (stereo partly drawn) [Example 6, hydrochloride of methyl (1S)-chloromethyl-5-{[(2RS)-hydroxyethyl-4-methylpiperazin-1-ylcarbonyl]oxy}-3-[5-(7-methoxybenzofuran-2-ylcarbonyl)amino-1H-indol-2-ylcarbonyl]-7-trifluoromethyl-1,2,3,6-tetrahydropyrrolo[3,2-e]indole-8-carboxylate]
[1]; [4]
  half-life at 5 µM: 5.8 h
[2]
  T/C (ratio of average tumor weight of administrated group to control group): 0.02

## COC(=O)c1c(C(F)(F)F)[nH]c2c(OC(=O)N3CCC[C@H]3CO)cc3c(c12)[C@H](CCl)CN3C(=O)c1cc2cc(NC(=O)c3cc4cccc(OC)c4o3)ccc2[nH]1 [Example 1, methyl (1S)-chloromethyl-5-{[(2S)-hydroxymethylpyrrolidin-1-ylcarbonyl]oxy}-3-[5-(7-methoxybenzofuran-2-ylcarbonyl)amino-1H-indol-2-ylcarbonyl]-7-trifluoromethyl-1,2,3,6-tetrahydropyrrolo[3,2-e]indole-8-carboxylate]
[1]; [3]
  half-life at 5 µM: > 8 h

## COC(=O)c1c(C(F)(F)F)[nH]c2c(OC(=O)N3CCCCC3CO)cc3c(c12)[C@H](CCl)CN3C(=O)c1cc2cc(NC(=O)c3cc4cccc(OC)c4o3)ccc2[nH]1 (mixture of isomers) [Example 4, methyl (1S)-chloromethyl-5-{[(2RS)-hydroxymethylpiperidin-1-ylcarbonyl]oxy}-3-[5-(7-methoxybenzofuran-2-ylcarbonyl)amino-1H-indol-2-ylcarbonyl]-7-trifluoromethyl-1,2,3,6-tetrahydropyrrolo[3,2-e]indole-8-carboxylate]
[1]; [4]
  half-life at 5 µM: > 8 h
[2]
  T/C (ratio of average tumor weight of administrated group to control group): 0.01

## COC(=O)c1c(C(F)(F)F)[nH]c2c(OC(=O)N3CCN(C)CC3CO)cc3c(c12)[C@H](CCl)CN3C(=O)c1cc2cc(NC(=O)c3cc4cccc(OC)c4o3)ccc2[nH]1 (stereo partly drawn) [Example 5, hydrochloride of methyl (1S)-chloromethyl-5-{[(2RS)-hydroxymethyl-4-methylpiperazin-1-ylcarbonyl]oxy}-3-[5-(7-methoxybenzofuran-2-ylcarbonyl)amino-1H-indol-2-ylcarbonyl]-7-trifluoromethyl-1,2,3,6-tetrahydropyrrolo[3,2-e]indole-8-carboxylate]
[1]; [4]
  half-life at 5 µM: 1.7 h
[2]
  T/C (ratio of average tumor weight of administrated group to control group): 0.01

## COC(=O)c1c(C(F)(F)F)[nH]c2c(OC(=O)N3CCOCC3CO)cc3c(c12)[C@H](CCl)CN3C(=O)c1cc2cc(NC(=O)c3cc4cccc(OC)c4o3)ccc2[nH]1 (mixture of isomers) [Example 7, methyl (1S)-chloromethyl-5-{[(3RS)-hydroxymethylmorpholin-4-ylcarbonyl]oxy}-3-[5-(7-methoxybenzofuran-2-ylcarbonyl)amino-1H-indol-2-ylcarbonyl]-7-trifluoromethyl-1,2,3,6-tetrahydropyrrolo[3,2-e]indole-8-carboxylate]
[1]; [4]
  half-life at 5 µM: 1.7 h

## COC(=O)c1c(C(F)(F)F)[nH]c2c(OC(=O)N3CCC[C@H]3CN3CCCC3)cc3c(c12)[C@H](CCl)CN3C(=O)c1cc2cc(NC(=O)c3cc4cccc(OC)c4o3)ccc2[nH]1 [Example 3, methyl (1S)-chloromethyl-5-{[(2S)-(pyrrolidin-l-ylmethyl)pyrrolidin-1-ylcarbonyl]oxy}-3-[5-(7-methoxybenzofuran-2-ylcarbonyl)amino-1H-indol-2-ylcarbonyl]-7-trifluoromethyl-1,2,3,6-tetrahydropyrrolo[3,2-e]indole-8-carboxylate]
[1]; [3]
  half-life at 5 µM: 1 h
